Source: ChEMBL document CHEMBL5506059, “Cyanomethylquinolones as a New Class of Potential Multitargeting Broad-Spectrum Antibacterial Agents” (J Med Chem, 2024)
In brackets after ≈: the same amount, converted by molar mass. Activity calls are given as the source filed them. The calls are words filed in the database; no cut-off is given here.

Experiments:
[1] = tested on: Streptococcus pyogenes; experiment: Antibacterial activity against Streptococcus pyogenes ATCC 19615 assessed as inhibition of bacterial growth incubated for 24 hrs; format: functional
[2] = tested on: Staphylococcus epidermidis; experiment: Antibacterial activity against Staphylococcus epidermidis ATCC 12228 assessed as inhibition of bacterial growth incubated for 24 hrs; format: functional
[3] = tested on: Klebsiella pneumoniae; experiment: Antibacterial activity against Klebsiella pneumoniae clinical isolate assessed as inhibition of bacterial growth incubated for 24 hrs; format: functional
[4] = tested on: Escherichia coli; experiment: Antibacterial activity against Escherichia coli clinical isolate assessed as inhibition of bacterial growth incubated for 24 hrs; format: functional
[5] = tested on: Enterococcus faecium; experiment: Antibacterial activity against Enterococcus faecium ATCC 19434 assessed as inhibition of bacterial growth incubated for 24 hrs; format: functional
[6] = tested on: Staphylococcus aureus; experiment: Antibacterial activity against Staphylococcus aureus ATCC 12600 assessed as inhibition of bacterial growth incubated for 24 hrs; format: functional
[7] = tested on: Enterococcus faecalis; experiment: Antibacterial activity against vancomycin-resistant Enterococcus faecalis clinical isolate p1-2007226001 assessed as inhibition of bacterial growth incubated for 24 hrs; format: functional
[8] = tested on: Pseudomonas aeruginosa; experiment: Antibacterial activity against Pseudomonas aeruginosa clinical isolate assessed as inhibition of bacterial growth incubated for 24 hrs; format: functional
[9] = tested on: Escherichia coli; experiment: Antibacterial activity against Escherichia coli ATCC 25922 assessed as inhibition of bacterial growth incubated for 24 hrs; format: functional
[10] = tested on: Staphylococcus aureus; experiment: Antibacterial activity against methicillin resistant Staphylococcus aureus clinical isolate assessed as inhibition of bacterial growth incubated for 24 hrs; format: functional
[11] = tested on: Enterococcus faecalis; experiment: Antibacterial activity against vancomycin-resistant Enterococcus faecalis clinical isolate p1-2007225053 assessed as inhibition of bacterial growth incubated for 24 hrs; format: functional
[12] = tested on: Pseudomonas aeruginosa; experiment: Resistance development in ciprofloxacin-treated Pseudomonas aeruginosa assessed as increase in MIC measured after 15th generation; format: functional, organism-based
[13] = tested on: Staphylococcus aureus; experiment: Antibacterial activity against Staphylococcus aureus clinical isolate assessed as inhibition of bacterial growth incubated for 24 hrs; format: functional
[14] = tested on: Staphylococcus aureus; experiment: Antibacterial activity against Staphylococcus aureus ATCC 29213 assessed as inhibition of bacterial growth incubated for 24 hrs; format: functional
[15] = tested on: Streptococcus pneumoniae; experiment: Antibacterial activity against Streptococcus pneumoniae ATCC 6305 assessed as inhibition of bacterial growth incubated for 24 hrs; format: functional
[16] = tested on: Enterococcus faecalis; experiment: Antibacterial activity against Enterococcus faecalis clinical isolate assessed as inhibition of bacterial growth incubated for 24 hrs; format: functional
[17] = tested on: Staphylococcus aureus; experiment: Resistance development in ciprofloxacin-treated methicillin resistant Staphylococcus aureus assessed as increase in MIC measured after 15th generation; format: functional, organism-based
[18] = tested on: Staphylococcus aureus; experiment: Antibacterial activity against Staphylococcus aureus ATCC 6538 assessed as inhibition of bacterial growth incubated for 24 hrs; format: functional
[19] = tested on: Staphylococcus aureus; experiment: Antibacterial activity against Staphylococcus aureus CMCC(B)26001 assessed as inhibition of bacterial growth incubated for 24 hrs; format: functional
[20] = tested on: Staphylococcus aureus; experiment: Antibacterial activity against Staphylococcus aureus CMCC(B)26003 assessed as inhibition of bacterial growth incubated for 24 hrs; format: functional
[21] = tested on: Acinetobacter baumannii; experiment: Antibacterial activity against Acinetobacter baumannii clinical isolate assessed as inhibition of bacterial growth incubated for 24 hrs; format: functional
[22] = tested on: Pseudomonas aeruginosa; experiment: Antibacterial activity against Pseudomonas aeruginosa ATCC 27853 assessed as inhibition of bacterial growth incubated for 24 hrs; format: functional
[23] = tested on: Staphylococcus aureus; experiment: Antibacterial activity against Staphylococcus aureus ATCC 25923 assessed as inhibition of bacterial growth incubated for 24 hrs; format: functional
[24] = tested on: Staphylococcus aureus; experiment: Resistance development in ciprofloxacin-treated Staphylococcus aureus ATCC 6538 assessed as increase in MIC measured after 15th generation; format: functional, organism-based
[25] = tested on: Staphylococcus aureus; experiment: Antibacterial activity against methicillin-resistant Staphylococcus aureus ATCC 43300 assessed as inhibition of bacterial growth incubated for 24 hrs; format: functional
[26] = tested on: Pseudomonas aeruginosa; experiment: Resistance development in ciprofloxacin-treated Pseudomonas aeruginosa ATCC 27853 assessed as increase in MIC measured after 15th generation; format: functional, organism-based
[27] = tested on: Erythrocyte; experiment: Hemolytic activity in human Red blood cells assessed as concentration required for 5% hemolysis measured after 1.5 hrs by absorbance based assay; format: toxicity, cell-based
[28] = tested on: Pseudomonas aeruginosa; experiment: Resistance development in Pseudomonas aeruginosa assessed as increase in MIC measured after 20 days; format: functional, organism-based; details: time 20.0 day
[29] = Hemolytic activity in human Red blood cells at 256 ug/ml measured after 1.5 hrs by absorbance based assay relative to control; format: toxicity, cell-based, Erythrocyte; details: red blood cells (erythrocytes), at 256 µg/mL, read-out: Activity
[30] = tested on: Pseudomonas aeruginosa; experiment: Induction of intracellular ROS generation in Pseudomonas aeruginosa assessed as increase in fluorescence intensity at 2 ug/ml incubated for 6 hrs in presence of N-acetyl-L-cysteine by DCFH-DA dye based fluorescence analysis; format: functional, organism-based; details: dose 2.0 µg/ml
[31] = tested on: Cell membrane; experiment: Induction of cell membrane damage in Pseudomonas aeruginosa assessed as increase in nucleic acid leakage at 0 to 2 ug/ml incubated for 12 hrs by optical density based microplate reader analysis; format: cell membranes; details: dose 0-2 µg/ml
[32] = tested on: Staphylococcus aureus; experiment: Resistance development in methicillin resistant Staphylococcus aureus assessed as increase in MIC measured after 20 days; format: functional, organism-based; details: time 20.0 day
[33] = tested on: Staphylococcus aureus; experiment: Antibacterial activity against methicillin resistant Staphylococcus aureus assessed as reduction in metabolic activity by measuring reduction in fluorescence intensity at 0.5 to 2 times MIC incubated for 6 hrs by alamar blue assay; format: functional, organism-based
[34] = tested on: Pseudomonas aeruginosa; experiment: Antibiofilm activity in Pseudomonas aeruginosa assessed as biofilm eradication measured after 24 hrs by crystal violet staining based analysis; format: functional, organism-based; details: dose 1-2 µg/ml
[35] = tested on: Cell membrane; experiment: Induction of cell membrane depolarization in Pseudomonas aeruginosa assessed as increase in fluorescence intensity at 1 ug/ml measured for 30 mins by DiSC35 dye based fluorescence analysis; format: cell membranes; details: dose 1.0 µg/ml
[36] = tested on: Pseudomonas aeruginosa; experiment: Antibacterial activity against Pseudomonas aeruginosa assessed as reduction in metabolic activity by measuring reduction in fluorescence intensity at 0.5 to 2 times MIC incubated for 6 hrs by alamar blue assay; format: functional, organism-based
[37] = tested on: Staphylococcus aureus; experiment: Antibiofilm activity in methicillin resistant Staphylococcus aureus assessed as biofilm eradication measured after 24 hrs by crystal violet staining based analysis; format: functional, organism-based; details: dose 1-2 µg/ml
[38] = tested on: Cell membrane; experiment: Induction of cell membrane permeability in Pseudomonas aeruginosa assessed as increase in fluorescence intensity at 1 to 2 ug/ml incubated for 6 hrs by PI staining based fluorescence analysis; format: cell membranes; details: dose 1-2 µg/ml
[39] = tested on: Cell membrane; experiment: Induction of cell membrane permeability in methicillin-resistant Staphylococcus aureus assessed as increase in fluorescence intensity at 1 to 2 ug/ml incubated for 6 hrs by PI staining based fluorescence analysis; format: cell membranes; details: dose 1-2 µg/ml
[40] = tested on: Staphylococcus aureus; experiment: Antibacterial activity against methicillin resistant Staphylococcus aureus clinical isolate assessed as inhibition of bacterial growth incubated under dark condition and measured upto 5 hrs; format: functional, organism-based
[41] = tested on: Cell membrane; experiment: Induction of cell membrane depolarization in methicillin-resistant Staphylococcus aureus assessed as increase in fluorescence intensity at 1 ug/ml measured for 30 mins by DiSC35 dye based fluorescence analysis; format: cell membranes; details: dose 1.0 µg/ml
[42] = tested on: Pseudomonas aeruginosa; experiment: Induction of intracellular ROS generation in Pseudomonas aeruginosa assessed as increase in fluorescence intensity at 2 ug/ml incubated for 6 hrs by DCFH-DA dye based fluorescence analysis; format: functional, organism-based; details: dose 2.0 µg/ml
[43] = tested on: Cell membrane; experiment: Induction of cell membrane damage in methicillin-resistant Staphylococcus aureus assessed as increase in nucleic acid leakage at 0 to 2 ug/ml incubated for 12 hrs by optical density based microplate reader analysis; format: cell membranes; details: dose 0-2 µg/ml

| SMILES | MIC [1] | MIC [2] | MIC [3] | MIC [4] | MIC [5] | MIC [6] | MIC [7] | MIC [8] | MIC [9] | MIC [10] | MIC [11] | MIC [13] | MIC [14] | MIC [15] | MIC [16] | MIC [18] | MIC [19] | MIC [20] | MIC [21] | MIC [22] | other results |
| --- | --- | --- | --- | --- | --- | --- | --- | --- | --- | --- | --- | --- | --- | --- | --- | --- | --- | --- | --- | --- | --- |
| CCn1cc(C(=O)O)c(=O)c2cc(F)c(N3CCNCC3)cc21 [NORFLOXACIN] | 32 µg/mL (≈ 100 µM) | 1 µg/mL (≈ 3.13 µM) | 8 µg/mL (≈ 25.1 µM) | 4 µg/mL (≈ 12.5 µM) | 4 µg/mL (≈ 12.5 µM) | 2 µg/mL (≈ 6.26 µM) | 8 µg/mL (≈ 25.1 µM) | 8 µg/mL (≈ 25.1 µM) | 4 µg/mL (≈ 12.5 µM) | 8 µg/mL (≈ 25.1 µM) | 1 µg/mL (≈ 3.13 µM) | 8 µg/mL (≈ 25.1 µM) | 4 µg/mL (≈ 12.5 µM) | 0.5 µg/mL (≈ 1.57 µM) | 8 µg/mL (≈ 25.1 µM) | 1 µg/mL (≈ 3.13 µM) | 0.25 µg/mL (≈ 0.783 µM) | 0.5 µg/mL (≈ 1.57 µM) | 2 µg/mL (≈ 6.26 µM) | 8 µg/mL (≈ 25.1 µM) | Activity [12]: Active; Activity [17]: Active; MIC [23]: 8 µg/mL (≈ 25.1 µM); Activity [24]: Active; MIC [25]: 4 µg/mL (≈ 12.5 µM); Activity [26]: Active |
| CCCCCCCCn1cc(C(=O)O)c(=O)c2cc(F)c(CC#N)cc21 | 2 µg/mL (≈ 5.58 µM) | 128 µg/mL (≈ 357 µM) | 256 µg/mL (≈ 714 µM) | 0.5 µg/mL (≈ 1.4 µM) | 128 µg/mL (≈ 357 µM) | 32 µg/mL (≈ 89.3 µM) | 128 µg/mL (≈ 357 µM) | 2 µg/mL (≈ 5.58 µM) | 256 µg/mL (≈ 714 µM) | 256 µg/mL (≈ 714 µM) | 256 µg/mL (≈ 714 µM) | 256 µg/mL (≈ 714 µM) | 256 µg/mL (≈ 714 µM) | 64 µg/mL (≈ 179 µM) | 256 µg/mL (≈ 714 µM) | 64 µg/mL (≈ 179 µM) | 2 µg/mL (≈ 5.58 µM) | 2 µg/mL (≈ 5.58 µM) | 256 µg/mL (≈ 714 µM) | 256 µg/mL (≈ 714 µM) | HC5 [27]: 258 µg/mL; MIC [23]: 1 µg/mL (≈ 2.79 µM); MIC [25]: 64 µg/mL (≈ 179 µM) |
| O=C(O)Cc1cc2c(cc1F)c(=O)c(C(=O)O)cn2C1CC1 | 1 µg/mL (≈ 3.28 µM) | 2 µg/mL (≈ 6.55 µM) | 8 µg/mL (≈ 26.2 µM) | 1 µg/mL (≈ 3.28 µM) | 8 µg/mL (≈ 26.2 µM) | 1 µg/mL (≈ 3.28 µM) | 8 µg/mL (≈ 26.2 µM) | 0.5 µg/mL (≈ 1.64 µM) | 0.5 µg/mL (≈ 1.64 µM) | 0.5 µg/mL (≈ 1.64 µM) | 2 µg/mL (≈ 6.55 µM) | 4 µg/mL (≈ 13.1 µM) | 2 µg/mL (≈ 6.55 µM) | 4 µg/mL (≈ 13.1 µM) | 4 µg/mL (≈ 13.1 µM) | 0.25 µg/mL (≈ 0.819 µM) | 0.125 µg/mL (≈ 0.409 µM) | 0.125 µg/mL (≈ 0.409 µM) | 0.5 µg/mL (≈ 1.64 µM) | 2 µg/mL (≈ 6.55 µM) | Activity [28]: inactive; hemolysis at 1.5 h, 256 ug/ml [29]: < 1%; Activity [30]: inactive; Activity [31]: Active; Activity [32]: inactive; Activity [33]: Active; Activity [34]: Dose-Dependent Effect; Activity [35]: Active; Activity [36]: Active; Activity [37]: Dose-Dependent Effect; Activity [38]: Active; Activity [39]: Active; HC5 [27]: > 10000 µg/mL; Activity [40]: Dose-Dependent Effect; Activity [41]: Active; MIC [23]: 32 µg/mL (≈ 105 µM); Activity [42]: Active; Activity [43]: Active; MIC [25]: 2 µg/mL (≈ 6.55 µM) |
| CCn1cc(C(=O)O)c(=O)c2cc(F)c(CC#N)cc21 | 1 µg/mL (≈ 3.65 µM) | 256 µg/mL (≈ 933 µM) | 2 µg/mL (≈ 7.29 µM) | 4 µg/mL (≈ 14.6 µM) | 256 µg/mL (≈ 933 µM) | 64 µg/mL (≈ 233 µM) | 128 µg/mL (≈ 467 µM) | 0.5 µg/mL (≈ 1.82 µM) | 2 µg/mL (≈ 7.29 µM) | 1 µg/mL (≈ 3.65 µM) | 128 µg/mL (≈ 467 µM) | 1 µg/mL (≈ 3.65 µM) | 4 µg/mL (≈ 14.6 µM) | 32 µg/mL (≈ 117 µM) | 32 µg/mL (≈ 117 µM) | 2 µg/mL (≈ 7.29 µM) | 4 µg/mL (≈ 14.6 µM) | 4 µg/mL (≈ 14.6 µM) | 0.5 µg/mL (≈ 1.82 µM) | 0.25 µg/mL (≈ 0.912 µM) | hemolysis at 1.5 h, 256 ug/ml [29]: < 1%; HC5 [27]: > 10000 µg/mL; MIC [23]: 0.25 µg/mL (≈ 0.912 µM); MIC [25]: 128 µg/mL (≈ 467 µM) |
